Consider 2 molecules from US20230218652A1, “ANTIFUNGAL PRODRUGS” (CENTRE NATIONAL DE LA RECHERCHE SCIENTIFIQUE, priority 2020, published 2023).

Each structure is given as a SMILES string. Entries after “also recorded” stand apart in the source; their conditions may differ. Where two headings read alike, the source gives them in different places. A value given as a limit tells only on which side of the number the result lay.

One data set concerns HeLa cells. The data set is described as follows: Human cells cytotoxicity, HeLa. The note with it: for IC50: HeLa cell line. The data set is classed as cell-based. On the procedure: (§1) Half maximal inhibitory concentration (IC50) required to inhibit 50% of the in vitro cell growth or viability were determined with broth microdilution method according to the European committee on antimicrobial susceptibility testing recommendations (protocols E.DEF 7.3.1 for Candida spp.) and according to a certified internal procedure to the laboratory IICiMed (for Leishmania spp.) (Le Pape, et al. Acta Parasitologica 2002, 47, 79-81).
(§2) The different strains, isolates and cell lines used are listed below: • Candida albicans clinical strain (IICiMed number CAAL93) • Candida albicans clinical strain (IICiMed number CAAL121) • Candida albicans reference strain SC5314 (IICiMed number CAAL146) • Leishmania major reference isolate MHOM/IL/81/BNI (IICiMed number LEMA1) • A549 cell line reference ATCC® CCL-185 (carcinoma epithelial cells from lung) • HeLa cell line reference
(§3) Growth or cell viability was performed on flat-bottomed microplate, firstly appreciated by visual reading and always confirmed using a Bio-Rad iMark microplate absorbance reader to measure the absorbance of the plate at 595 nm or using a resazurin salt cell viability assay with a Packard fluorocount microplate reader BF10000 with halogen light source to measure the fluorescence at 590 nm after excitation at 530 nm. Results represent the mean (±the standard error of the mean SEM if available) calculated from at least two independent experiments performed each in triplicate on one or several strains. The values are expressed with the corresponding pathogens and are represented in μM.

Data set [1] relates to Cryptococcus neoformans. The data set is described as follows: Antifungal activity in vitro. The data set is classed as cell-based. The method, then: as §1, §3
In the next data set the test system is Cryptococcus gattii. The data set is described as follows: Antifungal activity in vitro. The data set is classed as cell-based. The method, then:
as §1, §3

The test system of data set [2] is Cryptococcus neoformans. The data set is described as follows: In vivo anti-Cryptococcus activity in Galleria mellonella model (C. neoformans). The note with it: dose 2 mg·kg-1. The method, then:
(§4) This model also constitutes a screening model and a good alternative to the traditional studies on murine models for the evaluation of the activity of antifungal molecules. The AmB prodrug of the invention (Compound 1) was evaluated for its antifungal efficacy against Cryptococcus neoformans and Cr. gattii. […] In the absence of treatment, all larvae died after 6 days and 5 days, respectively. For Cryptococcus neoformans, at a dose of 2 mg·kg-1, amphotericin B led to 50% survival and its prodrug was also effective with a percentage survival of 30% at an equivalent dose.

The test system of data set [3] is Leishmania major (promastigote). The data set is described as follows: Antiparasitic activity in vitro (promastigote). The data set is classed as cell-based. The note with it: mean ± SEM. On the procedure:
(§5) Half maximal inhibitory concentration (IC50) required to inhibit 50% of the in vitro cell growth or viability were determined with broth microdilution method according to the European committee on antimicrobial susceptibility testing recommendations (protocols E.DEF 7.3.1 for Candida spp.) and according to a certified internal procedure to the laboratory IICiMed (for Leishmania spp.) (Le Pape, et al. Acta Parasitologica 2002, 47, 79-81). […]
as §3, with “The values are expressed with the corresponding pathogens and are represented in μM.” left out

For the next data set, the system named is Galleria mellonella. The data set is described as follows: Toxicity on the Galleria mellonella model. The data set is classed as in vivo. The note with it: uninfected larvae, dose 2 mg·kg-1. On the procedure: The larval model represents a rapid and practical tool for assessing the intrinsic toxicity of an active substance. See Le Pape et al, 2019, Int J Infect Dis. 2019 April; 81:85-90 for more details concerning the model. The larvae were incubated with AmB, AmB prodrug (Compound 1) and vehicle. At the dose of 2 mg·kg-1, AmB was very toxic leading to a 40% survival of the treated group. In comparison, at an equivalent dose, its prodrug was much less toxic with a percentage survival of 80%.

In data set [4] the test system is Candida albicans (blastospores). Put plainly: Antifungal activity in vitro, broth microdilution (blastospores). The note with it: mean ± SEM. The data set is classed as cell-based. On the procedure: as §5
as §3, with “The values are expressed with the corresponding pathogens and are represented in μM.” left out

The test system of another data set is Cr. gattii. Put plainly: In vivo anti-Cryptococcus activity in Galleria mellonella model (Cr. gattii). On the procedure: as §4
In the case of Cr. gattii, amphotericin B and the prodrug led to 30% and 20% survival respectively.

The test system of data set [5] is Candida albicans (filamented yeasts). Put plainly: Antifungal activity in vitro, broth microdilution (filamented yeasts). The data set is classed as cell-based. The note with it: mean ± SEM. On the procedure: as §5
as §3, with “The values are expressed with the corresponding pathogens and are represented in μM.” left out

Data set [6] has as its system Leishmania major (amastigote). Put plainly: Antiparasitic activity in vitro (intracellular amastigote). The note with it: intracellular amastigotes. The data set is classed as cell-based. The method, then:
as §5
as §3, with “The values are expressed with the corresponding pathogens and are represented in μM.” left out

Data set [7] is described as follows: Human cells cytotoxicity, HeLa. The note with it: human, HeLa cells; HeLa cell line. The data set is classed as cell-based. On the procedure:
as §1, §2, §3

The nature of data set [8]: Human cells cytotoxicity, hPBMC. The data set is classed as cell-based. The note with it: human peripheral blood mononuclear cells (hPBMC); human PBMC.
Data set [9] in a line: Human cells cytotoxicity, A549. The data set is classed as cell-based. The note with it: human, A549 cells (ATCC CCL-185, lung carcinoma epithelial cells), pneumocyte line A549. The method, then: as §5
as §3, with “The values are expressed with the corresponding pathogens and are represented in μM.” left out

A further data set relates to A549. The data set is described as follows: Human cells cytotoxicity, A549. The data set is classed as cell-based. The note with it: pneumocyte line A549. The method, then:
as §5
as §3, with “The values are expressed with the corresponding pathogens and are represented in μM.” left out

Data set [10] in a line: Aqueous stability in the absence of enzyme. The data set is classed as physicochemical. The note with it: for aqueous stability (in words): aqueous medium/buffer, 37° C., absence of the enzyme. The method, then: Enzymatic Release and Aqueous Stability In vitro enzymatic hydrolysis was carried out with commercial β-N-acetylhexosaminidase from Canavalia ensiformis E.C. 3.2.1.52 (22.8 units·mg^−1 protein, suspension in 2.5 M ammonium sulfate, pH 7.0). Using a VWR® Cooling Thermal Shake Touch and monitoring by analytical LC. Prodrug 1 was incubated with the enzyme according to the table below: […]

The subject of data set [11] is C. albicans blastoconidia. The data set is described as follows: Mouse model of C. albicans blastoconidia infection. The data set is classed as in vivo, mice. The note with it: 1 mg/kg i.p. once daily for 3 days, listed as AmB prodrug. On the procedure:
Mice were immunosuppressed by subcutaneous injection of 30 mg/kg prednisolone one day before challenge. On day 0, mice were infected intravenously C. albicans blastoconidia. One hour after infection, mice were treated intraperitoneally once daily with 1 mg/kg body weight of Fungizone®, Ambisome® and AmB prodrug (Compound 1, FIG. 1A) for 3 consecutive days. The control group received sterile distillated water (vehicle). Survival was monitored for 14 days post inoculation. Differences in cohorts were analyzed by the log-rank test. On day 14, all mice were euthanized and their kidneys were excised and weighed. Tissues were homogenized and serially diluted 10- to 1000-fold in sterile saline, then plated onto Sabouraud dextrose agar and incubated for 48 h to determine the number of CFUs. Tissue fungal burden was expressed as average log CFUs/gram of tissue. Differences in mean CFUs in kidneys were compared with the vehicle control using a one-way ANOVA with a post-hoc Tukey test. A P value of <0.05 was considered statistically significant.

As for `C[C@@H]1[C@H](O)[C@@H](C)/C=C/C=C/C=C/C=C/C=C/C=C/C=C/[C@H](O[C@@H]2O[C@H](C)[C@@H](O)[C@H](N)[C@@H]2O)C[C@@H]2O[C@](O)(C[C@@H](O)C[C@@H](O)[C@H](O)CC[C@@H](O)C[C@@H](O)CC(=O)O[C@H]1C)C[C@H](O)[C@H]2C(=O)O` [Amphotericin B, amphotericin B, reference compound], the IC50 is 23290 ± 110 nM in the data set on HeLa cells; around 23000 nM with HeLa cells (listed as AmB); 30 nM with Cryptococcus neoformans [1]; 40 nM in the data set with Cryptococcus gattii; 310 ± 20 nM in data set [3]; 360 ± 40 nM in data set [4]. The IC50 in data set [5] is 310 ± 10 nM; in [6] it was below 100 nM. The “percentage survival, larvae infected with Cryptococcus neoformans” value in the data set on Cryptococcus neoformans [2] was found to be 50%. Also, the “survival of the treated group (toxicity)” value in the data set with Galleria mellonella amounted to 40%. In the data set with Cr. gattii, the “survival, larvae infected with Cr. gattii” value turned out to be 30%.
Turning to `CC(=O)N[C@H]1[C@H](Oc2ccc(COC(=O)N[C@@H]3[C@H](O)[C@H](O[C@H]4/C=C/C=C/C=C/C=C/C=C/C=C/C=C/[C@H](C)[C@@H](O)[C@@H](C)[C@H](C)OC(=O)C[C@H](O)C[C@H](O)CC[C@@H](O)[C@H](O)C[C@H](O)C[C@]5(O)C[C@H](O)[C@@H](C(=O)O)[C@H](C4)O5)O[C@H](C)[C@H]3O)cc2[N+](=O)[O-])O[C@H](CO)[C@@H](O)[C@@H]1O` [Compound 1], the IC50 in data set [7] is above 100000 nM; in [8], above 50000 nM; in data set [9] it was above 50000 nM; in the data set with A549, above 100000 nM; in the data set on Cryptococcus neoformans [1] (Cryptococcus neoformans) it was 250 nM; in the data set with Cryptococcus gattii (Cryptococcus gattii), 600 nM. The IC50 in data set [3] (Leishmania major) was 270 ± 60 nM; in data set [4] (Candida albicans), 430 ± 20 nM; in [5] (Candida albicans) it was 420 ± 10 nM; in data set [6] (Leishmania major), below 100 nM. For the same molecule, in the data set with HeLa cells, the “toxicity on HELA cells (in words)” value is listed as “does not exhibit any significant toxicity”. Also, in the data set with Cryptococcus neoformans [2], the “percentage survival, larvae infected with Cryptococcus neoformans” value is reported as 30%. Further, the “survival of the treated group (toxicity)” value in the data set on Galleria mellonella is listed as 80%. The “aqueous stability (in words)” value is listed as “stable” in data set [10] (listed as AmB prodrug), “stable” in data set [10] (listed as prodrug) and “good aqueous stability” in [10] (listed as prodrug 1). Moreover, in data set [10] (aqueous solution without enzyme, aqueous, pH 7.4, 37° C., read-out: t1/2 aq, pH 7.4, 37° C.), the half-life was above 24 h. The “fungal burden of the kidney” value in data set [11] (day 14, vs control group) was “significantly reduction of the burden; also recorded: significant decrease in the kidney fungal load”. Also, in [11] (immunosuppressed mice, 14 days monitoring, vs vehicle, 1 mg/kg), the survival result is “statically improved survival; also recorded: significant improvement in survival”. For the same molecule, in the data set on Cr. gattii, the “survival, larvae infected with Cr. gattii” value is 20%.
